{"source": "paper PMC5218480", "about": "(PLoS ONE, 2017)", "system": "MV-4-11 cells", "experiment": "Gene expression microarray analysis (Affymetrix PrimeView) and GSEA", "assay_type": "cell-based, human", "design": "RFU PODN (11730768_x_at) / Fold change /veh PODN (11730768_x_at) / RFU LINC00158 (11744669_a_at) / Fold change /veh LINC00158 (11744669_a_at) / RFU DUSP10 (11751237_a_at) / Fold change /veh DUSP10 (11751237_a_at) / RFU ID3 (11757404_x_at) / Fold change /veh ID3 (11757404_x_at) / RFU PLEKHG5 (11737974_s_at) / Fold change /veh PLEKHG5 (11737974_s_at) / RFU LRRC4B (11730491_at) / Fold change /veh LRRC4B (11730491_at) / RFU GIMAP4 (11747438_a_at) / Fold change /veh GIMAP4 (11747438_a_at) / RFU KRT8 (11758183_x_at) / Fold change /veh KRT8 (11758183_x_at) / RFU CNN1 (11734310_a_at) / Fold change /veh CNN1 (11734310_a_at) / RFU VPS37D (11726825_at) / Fold change /veh VPS37D (11726825_at) / RFU C10orf10 (11716522_x_at) / Fold change /veh C10orf10 (11716522_x_at) / RFU KIR2DL2 /// KIR2DL4 /// KIR2DL5A /// KIR2DL5B /// KIR2DS1 /// KIR2DS2 /// KIR2DS3 /// KIR2DS4 /// KIR3DL3 /// KIR3DL3 /// KIR3DS1 (11738374_at) / Fold change /veh KIR2DL2 /// KIR2DL4 /// KIR2DL5A /// KIR2DL5B /// KIR2DS1 /// KIR2DS2 /// KIR2DS3 /// KIR2DS4 /// KIR3DL3 /// KIR3DL3 /// KIR3DS1 (11738374_at) / RFU C1QL1 (11718748_at) / Fold change /veh C1QL1 (11718748_at) / RFU TMPRSS4 (11747572_a_at) / Fold change /veh TMPRSS4 (11747572_a_at) / RFU HAMP (11756126_x_at) / Fold change /veh HAMP (11756126_x_at) / RFU RNFT2 (11725882_a_at) / Fold change /veh RNFT2 (11725882_a_at) / RFU NR4A2 (11747474_a_at) / Fold change /veh NR4A2 (11747474_a_at) / RFU ABCC12 (11746883_a_at) / Fold change /veh ABCC12 (11746883_a_at) / RFU TMEM136 (11760407_x_at) / Fold change /veh TMEM136 (11760407_x_at) / RFU CLDN22 /// WWC2 (11732394_at) / Fold change /veh CLDN22 /// WWC2 (11732394_at) / RFU HLA-DPB1 (11760878_x_at) / Fold change /veh HLA-DPB1 (11760878_x_at) / RFU SPINT1 (11716480_a_at) / Fold change /veh SPINT1 (11716480_a_at) / RFU GAP43 (11754022_s_at) / Fold change /veh GAP43 (11754022_s_at) / RFU A4GNT (11735810_at) / Fold change /veh A4GNT (11735810_at) / RFU PRB3 (11715151_x_at) / Fold change /veh PRB3 (11715151_x_at) / RFU TUBB4B (11761932_at) / Fold change /veh TUBB4B (11761932_at) / RFU CAPN14 (11732068_a_at) / Fold change /veh CAPN14 (11732068_a_at) / RFU TMCC2 (11721928_a_at) / Fold change /veh TMCC2 (11721928_a_at) / RFU IRGQ (11745062_a_at) / Fold change /veh IRGQ (11745062_a_at) / RFU FAM174B (11720279_a_at) / Fold change /veh FAM174B (11720279_a_at) / RFU TMPRSS4 (11748680_a_at) / Fold change /veh TMPRSS4 (11748680_a_at) / RFU FAM212B (11763350_a_at) / Fold change /veh FAM212B (11763350_a_at) / RFU PLEKHG5 (11743358_a_at) / Fold change /veh PLEKHG5 (11743358_a_at) / RFU ZSCAN30 (11745921_a_at) / Fold change /veh ZSCAN30 (11745921_a_at) / RFU CMKLR1 (11741424_a_at) / Fold change /veh CMKLR1 (11741424_a_at) / RFU LOC101060620 /// MAPK8IP1 (11723275_at) / Fold change /veh LOC101060620 /// MAPK8IP1 (11723275_at) / RFU SPTSSB (11747773_x_at) / Fold change /veh SPTSSB (11747773_x_at) / RFU PRSS12 (11739890_at) / Fold change /veh PRSS12 (11739890_at) / RFU BIN1 (11741810_x_at) / Fold change /veh BIN1 (11741810_x_at) / RFU WNT11 (11732464_a_at) / Fold change /veh WNT11 (11732464_a_at) / RFU C10orf10 (11716521_a_at) / Fold change /veh C10orf10 (11716521_a_at) / RFU C5orf56 (11738089_at) / Fold change /veh C5orf56 (11738089_at) / RFU CYB561 (11721691_x_at) / Fold change /veh CYB561 (11721691_x_at) / RFU ANKRD19P (11752326_a_at) / Fold change /veh ANKRD19P (11752326_a_at) / RFU OR2T12 /// OR2T33 /// OR2T8 (11738714_s_at) / Fold change /veh OR2T12 /// OR2T33 /// OR2T8 (11738714_s_at) / RFU VCAN (11748164_a_at) / Fold change /veh VCAN (11748164_a_at) / RFU JSRP1 (11732532_at) / Fold change /veh JSRP1 (11732532_at) / RFU KRTAP10-11 (11738290_x_at) / Fold change /veh KRTAP10-11 (11738290_x_at) / RFU MYO3A (11730013_a_at) / Fold change /veh MYO3A (11730013_a_at) / RFU EBF3 (11725865_a_at) / Fold change /veh EBF3 (11725865_a_at) / RFU CAMK2N1 (11719241_x_at) / Fold change /veh CAMK2N1 (11719241_x_at) / RFU C5orf56 (11738088_a_at) / Fold change /veh C5orf56 (11738088_a_at) / RFU OLFML3 (11715873_a_at) / Fold change /veh OLFML3 (11715873_a_at) / RFU LOC100653217 /// NTM (11731650_a_at) / Fold change /veh LOC100653217 /// NTM (11731650_a_at) / RFU MAPK11 (11762145_a_at) / Fold change /veh MAPK11 (11762145_a_at) / RFU FIZ1 (11724087_x_at) / Fold change /veh FIZ1 (11724087_x_at) / RFU OASL (11726364_x_at) / Fold change /veh OASL (11726364_x_at) / RFU SOX15 (11748057_x_at) / Fold change /veh SOX15 (11748057_x_at) / RFU CD79A (11719716_a_at) / Fold change /veh CD79A (11719716_a_at) / RFU HIST1H1D (11736915_at) / Fold change /veh HIST1H1D (11736915_at) / RFU CASKIN2 (11723855_a_at) / Fold change /veh CASKIN2 (11723855_a_at) / RFU LOC730098 (11760151_x_at) / Fold change /veh LOC730098 (11760151_x_at) / RFU OR4N2 (11742367_at) / Fold change /veh OR4N2 (11742367_at) / RFU PRRT2 (11749266_a_at) / Fold change /veh PRRT2 (11749266_a_at) / RFU SNX32 (11753110_a_at) / Fold change /veh SNX32 (11753110_a_at) / RFU CDHR5 (11726645_a_at) / Fold change /veh CDHR5 (11726645_a_at) / RFU RCAN1 (11760418_a_at) / Fold change /veh RCAN1 (11760418_a_at) / RFU FAM167A (11723789_a_at) / Fold change /veh FAM167A (11723789_a_at) / RFU FAM26E (11764081_at) / Fold change /veh FAM26E (11764081_at) / RFU ISYNA1 (11749810_s_at) / Fold change /veh ISYNA1 (11749810_s_at) / RFU ACY1 (11761880_at) / Fold change /veh ACY1 (11761880_at) / RFU 11764098_at / Fold change /veh 11764098_at / RFU SAMD14 (11745864_x_at) / Fold change /veh SAMD14 (11745864_x_at) / RFU NPB (11741838_a_at) / Fold change /veh NPB (11741838_a_at) / RFU TMPRSS6 (11731388_a_at) / Fold change /veh TMPRSS6 (11731388_a_at) / RFU KRTAP10-2 (11738614_at) / Fold change /veh KRTAP10-2 (11738614_at) / RFU ARHGAP8 /// PRR5-ARHGAP8 (11727945_x_at) / Fold change /veh ARHGAP8 /// PRR5-ARHGAP8 (11727945_x_at) / RFU KRTAP5-7 /// NADSYN1 (11734609_at) / Fold change /veh KRTAP5-7 /// NADSYN1 (11734609_at) / RFU RASL12 (11751679_a_at) / Fold change /veh RASL12 (11751679_a_at) / RFU CDKN2B (11736163_a_at) / Fold change /veh CDKN2B (11736163_a_at) / RFU PRF1 (11729649_at) / Fold change /veh PRF1 (11729649_at) / RFU, ZNF638 /// ZNF638-IT1 / Fold change vs veh, ZNF638 /// ZNF638-IT1 / RFU, PANK3 / Fold change vs veh, PANK3 / RFU, SH3YL1 / Fold change vs veh, SH3YL1 / RFU, ZEB2 / Fold change vs veh, ZEB2 / RFU, NRIP1 / Fold change vs veh, NRIP1 / RFU, PTTG1IP / Fold change vs veh, PTTG1IP / RFU, CAPN2 / Fold change vs veh, CAPN2 / RFU, MED14 / Fold change vs veh, MED14 / RFU, SNORA58 / Fold change vs veh, SNORA58 / RFU, C1orf63 / Fold change vs veh, C1orf63 / RFU, LRRFIP1 / Fold change vs veh, LRRFIP1 / RFU, NDUFAF7 / Fold change vs veh, NDUFAF7 / RFU, SLC12A2 / Fold change vs veh, SLC12A2 / RFU, IBTK / Fold change vs veh, IBTK / RFU, ESF1 / Fold change vs veh, ESF1 / Fold change vs veh, TMEM50B / RFU, TAOK1 / Fold change vs veh, TAOK1 / RFU, ACBD3 / Fold change vs veh, ACBD3 / RFU, TMA16 / Fold change vs veh, TMA16 / RFU, RWDD3 / Fold change vs veh, RWDD3 / RFU, BCAT1 / Fold change vs veh, BCAT1 / RFU, EDEM3 / Fold change vs veh, EDEM3 / RFU, TMEM33 / Fold change vs veh, TMEM33 / RFU, WDR75 / Fold change vs veh, WDR75 / RFU, AHCTF1 / Fold change vs veh, AHCTF1 / RFU, TFRC / Fold change vs veh, TFRC / RFU, ZDHHC17 / Fold change vs veh, ZDHHC17 / RFU, NOM1 / Fold change vs veh, NOM1 / RFU, ARL8B / Fold change vs veh, ARL8B / RFU, ZBTB11 / Fold change vs veh, ZBTB11 / RFU, TAMM41 / Fold change vs veh, TAMM41 / RFU, KIAA1704 /// LOC100996395 / Fold change vs veh, KIAA1704 /// LOC100996395 / RFU, ING1 / Fold change vs veh, ING1 / RFU, TRMT61B / Fold change vs veh, TRMT61B / RFU, FUBP3 / Fold change vs veh, FUBP3 / RFU, TP53 / Fold change vs veh, TP53 / RFU, TNKS2 / Fold change vs veh, TNKS2 / RFU, ZFP14 / Fold change vs veh, ZFP14 / RFU, ACTR2 / Fold change vs veh, ACTR2 / RFU, PPP3R1 / Fold change vs veh, PPP3R1 / RFU, PIK3R1 / Fold change vs veh, PIK3R1 / RFU, HNRNPA1 / Fold change vs veh, HNRNPA1 / RFU, RNF170 / Fold change vs veh, RNF170 / RFU, ZNF28 / Fold change vs veh, ZNF28 / RFU, RNGTT / Fold change vs veh, RNGTT / RFU, OGT / Fold change vs veh, OGT / RFU, BRD1 / Fold change vs veh, BRD1 / RFU, MARS / Fold change vs veh, MARS / RFU, ZNF655 / Fold change vs veh, ZNF655 / RFU, FAHD1 / Fold change vs veh, FAHD1 / RFU, BDP1 / Fold change vs veh, BDP1 / RFU, LRRCC1 / Fold change vs veh, LRRCC1 / RFU, ARID1A / Fold change vs veh, ARID1A / RFU, ZNF146 / Fold change vs veh, ZNF146 / RFU, ZNF330 / Fold change vs veh, ZNF330 / RFU, GPN3 / Fold change vs veh, GPN3 / RFU, C9orf123 / Fold change vs veh, C9orf123 / RFU, N4BP2L2 / Fold change vs veh, N4BP2L2 / RFU, ARFIP1 / Fold change vs veh, ARFIP1 / RFU, FAM179B / Fold change vs veh, FAM179B / RFU, BCL10 / Fold change vs veh, BCL10 / RFU, UHRF1BP1L / Fold change vs veh, UHRF1BP1L / RFU, BET1 / Fold change vs veh, BET1 / RFU, CNOT2 / Fold change vs veh, CNOT2 / RFU, ZNF268 / Fold change vs veh, ZNF268 / Fold change vs veh, ZNF507 / RFU, DGCR2 / Fold change vs veh, DGCR2 / RFU, WDSUB1 / Fold change vs veh, WDSUB1 / Fold change vs veh, HSP90B1 /// MIR3652 / RFU, ADSS / Fold change vs veh, ADSS / RFU, GK / Fold change vs veh, GK / RFU, ZNF148 / Fold change vs veh, ZNF148 / RFU, TAF9 / Fold change vs veh, TAF9 / RFU, SLC1A5 / Fold change vs veh, SLC1A5 / RFU, SLMO2 / Fold change vs veh, SLMO2 / RFU, ABCC4 / Fold change vs veh, ABCC4 / RFU, LOC101060439 /// RAP1B / Fold change vs veh, LOC101060439 /// RAP1B / RFU, RFX7 / Fold change vs veh, RFX7 / RFU, GTPBP10 / Fold change vs veh, GTPBP10 / RFU, CNEP1R1 / Fold change vs veh, CNEP1R1 / RFU, BIVM-ERCC5 /// ERCC5 / Fold change vs veh, BIVM-ERCC5 /// ERCC5 / RFU, ILF3 / Fold change vs veh, ILF3 / RFU 11762660_at / Fold change /veh 11762660_at / RFU VCAN (11757783_s_at) / Fold change /veh VCAN (11757783_s_at) / RFU DDX43 (11728927_at) / Fold change /veh DDX43 (11728927_at) / RFU KRT8 (11758188_x_at) / Fold change /veh KRT8 (11758188_x_at) / RFU NKD1 (11759106_at) / Fold change /veh NKD1 (11759106_at) / RFU SRD5A1 (11742802_a_at) / Fold change /veh SRD5A1 (11742802_a_at) / RFU TPSAB1 /// TPSB2 (11721975_s_at) / Fold change /veh TPSAB1 /// TPSB2 (11721975_s_at) / RFU GSTM3 (11746129_a_at) / Fold change /veh GSTM3 (11746129_a_at) / RFU IL23R (11737362_x_at) / Fold change /veh IL23R (11737362_x_at) / RFU TMEM51 (11727254_a_at) / Fold change /veh TMEM51 (11727254_a_at) / RFU PIWIL2 (11732686_x_at) / Fold change /veh PIWIL2 (11732686_x_at) / RFU ORM1 (11744905_x_at) / Fold change /veh ORM1 (11744905_x_at) / RFU CCDC152 (11743942_at) / Fold change /veh CCDC152 (11743942_at) / RFU ECM1 (11717891_a_at) / Fold change /veh ECM1 (11717891_a_at) / RFU IL23R (11748794_a_at) / Fold change /veh IL23R (11748794_a_at) / RFU TNFAIP8L3 (11732012_x_at) / Fold change /veh TNFAIP8L3 (11732012_x_at) / RFU MBOAT4 (11741988_at) / Fold change /veh MBOAT4 (11741988_at) / RFU 11764193_at / Fold change /veh 11764193_at / RFU TMEM53 (11763286_at) / Fold change /veh TMEM53 (11763286_at) / RFU MAGEB2 (11727129_at) / Fold change /veh MAGEB2 (11727129_at) / RFU TMEM200A (11744735_a_at) / Fold change /veh TMEM200A (11744735_a_at) / RFU CCDC152 (11751479_a_at) / Fold change /veh CCDC152 (11751479_a_at) / RFU FAM211A (11726209_a_at) / Fold change /veh FAM211A (11726209_a_at) / RFU RGS16 (11746705_a_at) / Fold change /veh RGS16 (11746705_a_at) / RFU VCAN (11755009_s_at) / Fold change /veh VCAN (11755009_s_at) / RFU RHOB (11743442_s_at) / Fold change /veh RHOB (11743442_s_at) / RFU RGS16 (11720943_a_at) / Fold change /veh RGS16 (11720943_a_at) / RFU RGS16 (11720944_at) / Fold change /veh RGS16 (11720944_at) / RFU, VPS4B / Fold change vs veh, VPS4B / RFU, CREB1 / Fold change vs veh, CREB1 / RFU, DNAJC13 / Fold change vs veh, DNAJC13 / RFU, GNAQ / Fold change vs veh, GNAQ / RFU, CDK5R1 / Fold change vs veh, CDK5R1 / RFU, ZRANB3 / Fold change vs veh, ZRANB3 / RFU, CUL4A / Fold change vs veh, CUL4A / RFU, CCNY / Fold change vs veh, CCNY / RFU, UFL1 / Fold change vs veh, UFL1 / RFU, COG3 / Fold change vs veh, COG3 / RFU, DIAPH2 / Fold change vs veh, DIAPH2 / RFU, SKA2 / Fold change vs veh, SKA2 / RFU, AFF3 / Fold change vs veh, AFF3 / RFU, LMF1 / Fold change vs veh, LMF1 / RFU, IPO11 / Fold change vs veh, IPO11 / RFU, DFFB / Fold change vs veh, DFFB / RFU, FOXP1 / Fold change vs veh, FOXP1 / RFU, CARD8 / Fold change vs veh, CARD8 / RFU, STRN3 / Fold change vs veh, STRN3 / RFU, ADK / Fold change vs veh, ADK / RFU, RASSF2 / Fold change vs veh, RASSF2 / RFU, WIPF1 / Fold change vs veh, WIPF1 / RFU, LARP1B / Fold change vs veh, LARP1B / RFU, RASA1 / Fold change vs veh, RASA1 / RFU, RB1 / Fold change vs veh, RB1 / RFU, PPFIA1 / Fold change vs veh, PPFIA1 / RFU, MAT2A / Fold change vs veh, MAT2A / RFU, CCT5 / Fold change vs veh, CCT5 / RFU, WDR92 / Fold change vs veh, WDR92 / RFU, CUX1 / Fold change vs veh, CUX1 / RFU, TTC7A / Fold change vs veh, TTC7A / RFU, TMEM135 / Fold change vs veh, TMEM135 / RFU, DEPTOR / Fold change vs veh, DEPTOR / RFU, CPM / Fold change vs veh, CPM / RFU, DNAJB6 / Fold change vs veh, DNAJB6 / RFU, CACNA2D3 / Fold change vs veh, CACNA2D3 / RFU, DTX4 / Fold change vs veh, DTX4 / RFU, TFCP2 / Fold change vs veh, TFCP2 / RFU, GMCL1 /// GMCL1P1 / Fold change vs veh, GMCL1 /// GMCL1P1 / RFU, AEBP2 / Fold change vs veh, AEBP2 / RFU, SNHG1 /// SNORD22 /// SNORD25 /// SNORD26 /// SNORD27 /// SNORD28 /// SNORD29 /// SNORD31 / Fold change vs veh, SNHG1 /// SNORD22 /// SNORD25 /// SNORD26 /// SNORD27 /// SNORD28 /// SNORD29 /// SNORD31 / Fold change (Aza/veh), C12orf56 (ProbeSet 11735607_a_at) / Fold change (ACY-1035/veh), C12orf56 (ProbeSet 11735607_a_at) / Fold change (Aza/veh), FGFR1OP (ProbeSet 11751329_s_at) / Fold change (ACY-1035/veh), FGFR1OP (ProbeSet 11751329_s_at) / Fold change (Aza/veh), VPS36 (ProbeSet 11739960_a_at) / Fold change (ACY-1035/veh), VPS36 (ProbeSet 11739960_a_at) / RFU SYPL1 (11715823_x_at) / Fold change /veh SYPL1 (11715823_x_at) / RFU IGFBP7 (11715501_s_at) / Fold change /veh IGFBP7 (11715501_s_at) / RFU REEP3 (11722064_at) / Fold change /veh REEP3 (11722064_at) / RFU IGLL1 (11728026_x_at) / Fold change /veh IGLL1 (11728026_x_at): dose or concentration left out as unconfirmed", "conditions": "ProbeSet 11739696_s_at; LIST D", "data": [{"compound": "Nc1ccc(-c2cccs2)cc1NC(=O)c1ccc2c(c1)cc(C1CC1)n2CCN1CCOCC1", "note": "[ACY-1035]", "values": [{"measurement": "Fold change vs veh, AFF3", "result": 1.00}]}]}
